US8431593B2, “Heteroaryl amide derivatives” (H. Lundbeck A/S, priority 2006, dated 2013)

biological target: T1, P2X7 receptor (Homo sapiens, UniProt Q99572); test: P2X7 calcium mobilization assay, high throughput, antagonist activity (Example 4A); assay type: cell-based; settings: fluorescence response of cells exposed to 80 μM 2′(3′)-O-(4-benzoyl-benzoyl)adenosine 5′-triphosphate; Example 4A; read-out: IC50
T1 construct: host or cells: SH-SY5Y
T1 sequence (Q99572 1-595): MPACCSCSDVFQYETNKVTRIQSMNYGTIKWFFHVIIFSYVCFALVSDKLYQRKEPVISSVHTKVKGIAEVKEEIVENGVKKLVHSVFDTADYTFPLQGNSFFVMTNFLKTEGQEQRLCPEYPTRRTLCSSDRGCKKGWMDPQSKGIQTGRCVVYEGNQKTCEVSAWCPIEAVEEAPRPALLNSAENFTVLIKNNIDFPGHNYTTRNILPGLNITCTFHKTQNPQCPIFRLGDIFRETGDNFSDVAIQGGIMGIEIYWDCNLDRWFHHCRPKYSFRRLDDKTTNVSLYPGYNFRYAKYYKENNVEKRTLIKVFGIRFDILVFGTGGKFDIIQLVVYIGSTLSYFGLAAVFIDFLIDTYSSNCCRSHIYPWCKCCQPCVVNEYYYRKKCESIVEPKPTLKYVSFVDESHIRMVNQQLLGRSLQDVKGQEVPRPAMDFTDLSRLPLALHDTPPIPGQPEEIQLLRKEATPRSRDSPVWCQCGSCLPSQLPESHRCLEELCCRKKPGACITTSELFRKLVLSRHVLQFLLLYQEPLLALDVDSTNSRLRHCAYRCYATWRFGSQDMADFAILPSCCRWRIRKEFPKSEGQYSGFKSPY
Procedure, shortened: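 FLIPR^TETRA calcium read-out: maximum RFU per well minus average no-agonist control, with agonist wells giving the average positive maximum. Cells seeded at 100,000/well one day ahead, dye-loaded 1 h, rinsed, then exposed to compound for 1 h at room temperature.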

IC50, < 2 µM:
C[C@H](N)C(=O)N[C@@H]1CCN(Cc2cn3c(C(=O)NCC45CC6CC(CC(C6)C4)C5)cccc3n2)C1 [Compound 277, N-(adamantan-1-ylmethyl)-2-{[(3R)-3-(L-alanylamino)pyrrolidin-1-yl]methyl}imidazo[1,2-a]pyridine-5-carboxamide]
C=Cc1cn2c(C(=O)NCC34CC5CC(CC(C5)C3)C4)cccc2n1 [Compound 278, N-(adamantan-1-ylmethyl)-2-vinylimidazo[1,2-a]pyridine-5-carboxamide]
Cc1c(C(=O)O)ncn1Cc1cn2c(C(=O)NCC34CC5CC(CC(C5)C3)C4)cccc2n1 [Compound 279, 1-({5-[(adamantan-1-ylmethyl)carbamoyl]imidazo[1,2-a]pyridin-2-yl}methyl)-5-methyl-1H-imidazole-4-carboxylic acid]
CCOC(=O)c1cn2c(C(=O)NC(C)C34CC5CC(CC(C5)C3)C4)cccc2n1 (stereo not shown) [Compound 280, ethyl 5-[(1-adamantan-1-ylethyl)carbamoyl] imidazo[1,2-a] pyridine-2-carboxylate]
CCOC(=O)Cc1cn2c(C(=O)NC(C)C34CC5CC(CC(C5)C3)C4)cccc2n1 (stereo not shown) [Compound 281, ethyl {5-[(1-adamantan-1-ylethyl)carbamoyl]imidazo[1,2-a]pyridin-2-yl}acetate]
O=C(NCC12CC3CC(CC(C3)C1)C2)c1cccc2nc(CN3CC[C@H](F)C3)cn12 [Compound 282, N-(adamantan-1-ylmethyl)-2-[(3-fluoropyrrolidin-1-yl)methyl]imidazo[1,2-a]pyridine-5-carboxamide]
NCCS(=O)(=O)Cc1cn2c(C(=O)NCC34CC5CC(CC(C5)C3)C4)cccc2n1 [Compound 283, N-(adamantan-1-ylmethyl)-2-{[(2-aminoethyl)sulfonyl]methyl}imidazo [1,2-a]pyridine-5-carboxamide]
Cc1cc(-c2cn3c(C(=O)NCC45CC6CC(CC(C6)C4)C5)cccc3n2)n[nH]1 [Compound 284, N-(adamantan-1-ylmethyl)-2-(5-methyl-1H-pyrazol-3-yl)imidazo[1,2-a]pyridine-5-carboxamide]
O=C(O)COCc1cn2c(C(=O)NCC34CC5CC(CC(C5)C3)C4)cccc2n1 [Compound 285, ({5-[{adamantan-1-ylmethyl)carbamoyl]imidazo[1,2-a]pyridin-2-yl}methoxy)acetic acid]
O=C(NCC12CC3CC(CC(C3)C1)C2)c1cccc2nc(CN3CCCC3)cn12 [Compound 286, N-(adamantan-1-ylmethyl)-2-(pyrrolidin-1-ylmethyl)imidazo[1,2-a]pyridine-5-carboxamide]
O=C(O)CSCc1cn2c(C(=O)NCC34CC5CC(CC(C5)C3)C4)cccc2n1 [Compound 287, [({5-[(adamantan-1-ylmethyl)carbamoyl]imidazo[1,2-a]pyridin-2-yl}methyl)thio]acetic acid]
O=C(NCC12CC3CC(CC(C3)C1)C2)c1cccc2nc(CN3CCCC(F)(F)C3)cn12 [Compound 288, N-(adamantan-1-ylmethyl)-2-[(3,3-difluoropiperidin-1-yl)methyl]imidazo[1,2-a]pyridine-5-carboxamide]
O=C(O)CS(=O)(=O)Cc1cn2c(C(=O)NCC34CC5CC(CC(C5)C3)C4)cccc2n1 [Compound 289, [({5-[(adamantan-1-ylmethyl)carbamoyl]imidazo[1,2-a]pyridin-2-yl}methyl)sulfonyl] acetic acid]
O=C(NCC12CC3CC(CC(C3)C1)C2)c1cccc2nc(CN3CCC(F)(F)CC3)cn12 [Compound 290, N-(adamantan-1-ylmethyl)-2-[(4,4-difluoropiperidin-1-yl)methyl]imidazo[1,2-a]pyridine-5-carboxamide]
O=C(NCC12CC3CC(CC(C3)C1)C2)c1cccc2nc(CN3CCOCC3)cn12 [Compound 291, N-(adamantan-1-ylmethyl)-2-(morpholin-4-ylmethyl)imidazo[1,2-a]pyridine-5-carboxamide]
O=C(NCC12CC3CC(CC(C3)C1)C2)c1cccc2nc(CCc3nnn[nH]3)cn12 [Compound 292, N-(adamantan-1-ylmethyl)-2-(2-(1H-tetrazol-5-yl)ethyl]imidazo[1,2-a]pyridine-5-carboxamide]
O=C(NCC12CC3CC(CC(C3)C1)C2)c1cccc2nc(CSc3nnc[nH]3)cn12 [Compound 293, N-(adamantan-1-ylmethyl)-2-[(4H-1,2,4-triazol-3-ylthio)methyl]imidazo [1,2-a]pyridine-5-carboxamide]
O=C(NCC12CC3CC(CC(C3)C1)C2)c1cccc2nc(CN3CC[C@@H](F)C3)cn12 [Compound 294, N-(adamantan-1-ylmethyl)-2-[(3-fluoropyrrolidin-1-yl)methyl]imidazo[1,2-a]pyridine-5-carboxamide]
N[C@@H]1CCCN(C(=O)Cc2cn3c(C(=O)NCC45CC6CC(CC(C6)C4)C5)cccc3n2)C1 [Compound 295, N-(adamantan-1-ylmethyl)-2-{2-[(3R)-3-aminopiperidin-1-yl]-2-oxoethyl}imidazo[1,2-a]pyridine-5-carboxamide]
O=C(O)CCc1cn2c(C(=O)NCC34CC5CC(CC(C5)C3)C4)cccc2n1 [Compound 296, 3-{5-[(adamantan-1-ylmethyl)carbamoyl]imidazo[1,2-a]pyridin-2-yl}propanoic acid]
NCCc1cn2c(C(=O)NCC34CC5CC(CC(C5)C3)C4)cccc2n1 [Compound 297, N-(adamantan-1-ylmethyl)-2-(2-aminoethyl)imidazo [1,2-a]pyridine-5-carboxamide]
N#Cc1ccc(-c2cn3c(C(=O)NCC45CC6CC(CC(C6)C4)C5)cccc3n2)cc1 [Compound 298, N-(adamantan-1-ylmethyl)-2-(4-cyanophenyl)imidazo [1,2-a]pyridine-5-carboxamide]
N[C@@H]1CCN(Cc2cn3c(NC(=O)CC45CC6CC(CC(C6)C4)C5)cccc3n2)C1 [Compound 299, 2-adamantan-1-yl-N-(2-{[(3R)-3-aminopyrrolidin-1-yl]methyl}imidazo[1,2-a]pyridin-5-yl)acetamide]
CC1(C)[C@H]2CC[C@@H](CNC(=O)c3cccc4nc(C(=O)N5CCCNCC5)cn34)[C@@H]1C2 [Compound 304, 2-(1,4-diazepan-1-ylcarbonyl)-N-{[(1S,2R,5S)-6,6-dimethylbicyclo[3.1.1]hept-2-yl]methyl}imidazo[1,2-a]pyridine-5-carboxamide]
C[C@@H]1CNCCN1C(=O)c1cn2c(C(=O)NC[C@@H]3CC[C@H]4C[C@@H]3C4(C)C)cccc2n1 [Compound 305, N-{[(1S,2R,5S)-6,6-dimethylbicyclo[3.1.1]hept-2-yl]methyl}-2-{[(2R)-2-methylpiperazin-1-yl]carbonyl}imidazo[1,2-a]pyridine-5-carboxamide]
CC(C)[C@H]1CN(C(=O)c2cn3c(C(=O)NC[C@@H]4CC[C@H]5C[C@@H]4C5(C)C)cccc3n2)CCN1 [Compound 308]
CN(C(=O)c1cn2c(C(=O)NC[C@@H]3CC[C@H]4C[C@@H]3C4(C)C)cccc2n1)C1CCCNC1 (stereo partly drawn) [Compound 311, 5-N-{[(1S,2R,5S)-6,6-dimethylbicyclo[3.1.1]hept-2-yl]methyl}-2-N-methyl-2-N-piperidin-3-ylimidazo[1,2-a]pyridine-2,5-dicarboxamide]
CNC1CCN(C(=O)c2cn3c(C(=O)NC[C@@H]4CC[C@H]5C[C@@H]4C5(C)C)cccc3n2)C1 (stereo partly drawn) [Compound 313, N-{[(1S,2R,5S)-6,6-dimethylbicyclo[3.1.1]hept-2-yl]methyl}-2-{[3-(methylamino)pyrrolidin-1-yl]carbonyl}imidazo[1,2-a]pyridine-5-carboxamide]
CC1(C)[C@H]2CC[C@@H](CNC(=O)c3cccc4nc(C(=O)N5CCC(N)C5)cn34)[C@@H]1C2 (stereo partly drawn) [Compound 315, 2-[(3-aminopyrrolidin-1-yl)carbonyl]-N-{[(1S,2R,5S)-6,6-dimethylbicyclo[3.1.1]hept-2-yl]methyl}imidazo[1,2-a]pyridine-5-carboxamide]
CN(C)CCN(C(=O)c1cn2c(C(=O)NC[C@@H]3CC[C@H]4C[C@@H]3C4(C)C)cccc2n1)C1CCNCC1(C)C (stereo partly drawn) [Compound 319, 2-N-[2-(dimethylamino)ethyl]-5-N-{[(1S,2R,5S)-6,6-dimethylbicyclo[3.1.1]hept-2-yl]methyl}-2-N-(3,3-dimethylpiperidin-4-yl)imidazo[1,2-a]pyridine-2,5-dicarboxamide]
CC1(C)[C@H]2CC[C@@H](CNC(=O)c3cccc4nc(C(=O)N5CCCC(CN)C5)cn34)[C@@H]1C2 (stereo partly drawn) [Compound 322, 2-{[3-(aminomethyl)piperidin-1-yl]carbonyl}-N-{[(1S,2R,5S)-6,6-dimethylbicyclo[3.1.1]hept-2-yl]methyl}imidazo[1,2-a]pyridine-5-carboxamide]
